# Results as given in US8883504B2, “Cell differentiation suppressing agent, method of culturing cells using the same, culture solution, and cultured cell line” (Asahi Kasei Kabushiki Kaisha, priority 2003, dated 2014).
# How the values were obtained:
# Nanog gene = Nanog gene expression level by real time PCR (ES cell differentiation inhibition assay 3); format: cell-based, mouse; details: D3ES cells, 4 μg/mL, 1 day, GAPDH internal standard, FIG. 7
# Method: For the D3ES cells prepared by the method described in (3) preparation of a mouse ES cell of Example 1, 7.85×10^5 cells were seeded in a 10 cm-diameter cell culture dish coated previously with a 0.1% aqueous gelatin solution to make 10 mL of the ES cell assay medium. The differentiation inhibiting agent B of the present invention in the final concentration of 4 μg/mL or ESGRO in the final concentration of 1×10^3 unit/mL was added to each dish, and culturing was carried out at 37° C. in 5% CO2 incubator for 1 day.
# The total RNA was extracted from the ES cell cultured by the method shown in (3) ES cell differentiation inhibition assay 3 as described above by using ISOGEN (K.K. Nippon Gene Corp. Japan made) by the attached method. In this method, the cell was collected in a 15 mL sterilized tube, centrifuged at 1,000 rpm for about 5 minutes by using the table centrifuge (TOMY SEIKO made) to make pellets. The supernatant was removed, the pellets were washed twice with 10 mL of PBS, and then, transferred to a 1.5 mL Eppendorf tube. The pellets were dissolved in 1 ml ISOGENE and left stand at room temperature for 5 minutes and, then, added with 0.2 mL of chloroform (Wako Pure Chemicals), shaken for 15 seconds, and left stand at room temperature for 2 or 3 minutes. Centrifugation was carried out at 4° C. at 10,000 rpm for 15 minutes by using the micro centrifuge (TOMY SEIKO made), 400 μL of the supernatant was transferred to a fresh 1.5 mL Eppendorf tube. 500 μL of isopropanol (Wako Pure Chemicals) was added and the mixture was left stand at room temperature for 10 minutes and, then, was centrifuged at 4° C. at 10,000 rpm for 10 minutes by using the micro centrifuge. The supernatant was removed and, then, 1 mL of a 70% ethanol aqueous solution was added. The mixture was shaken and then was centrifuged at 4° C. at 10,000 rpm for about 5 minutes by using the micro centrifuge. The supernatant was removed and the precipitation was dried and, then, dissolved in 30 μL of distilled water to obtain the total RNA solution.
# The cDNA was synthesized by using 2 μg of the total RNA obtained by such the way as the template, using DeoxyribonucleaseI (Amplification Grade) (Invitrogen Corp. made) and SuperScript III First-Strand Synthesis System for RT-PCR (Invitrogen Corp. made, 18080-051) by the attached protocol. In this step, 1 μL of 10× DNaseI Reaction Buffer, 1 μL of 10× DNaseI (all these were of Invitrogen Corp. made) were added to 2 μg of the total RNA to give the total volume of 10 μL by adding distilled water to prepare the reaction solution, and then incubation was carried out at room temperature for 10 minutes. 1 μL of 25 mM EDTA solution was added, and the mixture was heated at 65° C. for 10 minutes and then, cooled to room temperature. 8 μL of the reaction solution was taken out, and 1 μL of […] Oligo(dT) 20 primer and 1 μL of 10 mM dNTP Mix were added, and incubation was carried out at 65° C. for 5 minutes. The reaction solution was placed on ice for 1 minute, and then 2 μL of 10× RT Buffer, 4 μL of 25 mM MgCl2, 2 μL of 0.1 M DTT, 1 μL of RNaseOUT (Invitrogen Corp. made) and 1 μL of SuperScript III RT were added for incubation at 50° C. for 50 minutes. Subsequently, incubation was carried out at 85° C. for 5 minutes, and then the mixture was left stand on ice for 1 min. […] The expression level of the Nanog gene and the glyceraldehyde-3-phosphate dehydrogenase (GAPDH) gene as the internal standard were measured. […]
# mouse ES cell = test: Subculture of ES cells, alkaline phosphatase quantified by colony assay; format: cell-based
# Method: For the ES cells prepared by the method described in (3) preparation of the mouse ES cell of Example 1, 3×10^5 cells were seeded on a 6 cm-diameter cell culture dish coated previously with a 0.1% aqueous gelatin solution to make 4.5 mL of the ES cell assay medium. 0.5 mL of the differentiation inhibiting agent (A to F and a to o) of the present invention, which was dissolved in dimethylsulfoxide (DMSO) or culture medium, or their mixture to make 10 to 40 μg/mL per each dish, or 10^4 units/mL of ESGRO was added. The final concentration of DMSO in the culture medium was 0.1% or lower. As the control, only DMSO was made the final concentration in 0.1% by adding 0.5 mL of a 1% concentration solution diluted with the medium. Culturing was conducted at 37° C. in 5% CO2 incubator for 7 to 30 days. The medium was replaced every day, and the cells were passaged to make 3×10^5 cells/dish for every 2 to 3 days.
# The alkaline phosphatase activity of the ES cells cultured for 7 or 30 days by using the differentiation inhibiting agents of the present invention was quantified by applying colony assay. […] The absorbance at 405 nm (O.D.405) and absorbance at 690 nm (O.D.690) of the solution were measured by using the spectrophotometer (Molecular Devices Corp. made, type: SPECTRA MAX190), and the value calculated from O.D.405-O.D.690 was determined as the alkaline phosphatase activity.
Compound,"expression level of Nanog gene in comparison with medium without agent and medium containing 1,000 units/mL of ESGRO (Nanog gene)","alkaline phosphatase activity of subcultured ES cells in comparison with ES cells cultured by using DMSO (0.1%) (mouse ES cell; subcultured in the medium without serum for 7 days by adding the compound, FIG. 14)","alkaline phosphatase activity of subcultured ES cells in comparison with ES cells cultured by using DMSO (0.1%) (mouse ES cell; subcultured for 30 days by adding the compound, FIG. 13)"
"CC1(C)Cc2ccccc2C(=C(N=Nc2cccc(Cl)c2)C(N)=O)N1 [C, 2-(3-chloro-phenylazo)-2-(3,3-dimethyl-3,4-dihydro-2H-isoquinoline-1-ylidene)-acetamide]",increased similarly to the differentiation inhibiting agents B,–,–
"CC1(C)Cc2ccccc2C(=C(N=Nc2cccc([N+](=O)[O-])c2)C(N)=O)N1 [E, 2-(3,3-dimethyl-3,4-dihydro-2H-isoquinoline-1-ylidene)-2-(3-nitro-phenylazo)-acetamide]",increased similarly to the differentiation inhibiting agents B,–,–
"COc1ccc(N=NC(C(N)=O)=C2NC(C)(C)Cc3ccccc32)cc1 [F, 2-(3,3-dimethyl-3,4-dihydro-2H-isoquinoline-1-ylidene)-2-(4-methoxy-phenylazo)-acetamide]",increased similarly to the differentiation inhibiting agents B,increased significantly,–
"CC(=O)c1ccc(/N=N/C(C(N)=O)=C2/NC(C)(C)Cc3ccccc32)cc1 [compound B, 2-(4-acetyl-phenylazo)-2-(3,3-dimethyl-3,4-dihydro-2H-isoquinoline-1-ylidene)-acetamide]",increased significantly,–,increased significantly
